This note sets out measurements from patent publication US20230202985A1, “Indoles, Indazoles, and Related Analogs for Inhibiting YAP/TAZ-TEAD” (THE KATHOLIEKE UNIVERSITEIT LEUVEN, priority 2021, published 2023).

Bounds are passed on as bounds.

Holding throughout (type): cell-based
In one assay the test system is NCI-H2052. The assay can be described thus: Mesothelioma cell line proliferation assay (ATPlite), NCI-H2052. The note with it: Homo sapiens, 144 h; NCI-H2052 cells, 6 days with compound, cell viability by ATPlite. The procedure:
(§1) Mesothelioma cell lines, NCI-H226 and NCI-H2052 (all sourced from the ATCC cell culture collection) are plated in 96-well plates (Corning® 96 Well White Polystyrene Microplate clear flat bottom, white polystyrene (TC-Treated)), at 1500 cells/well in full medium (RPMI 1640 ATCC modification with L-glutamine, HEPES, Phenol Red, Sodium Pyruvate, High glucose, Low sodium bicarbonate and 10% fetal bovine serum). Cells are incubated overnight at 37° C. in an incubator with 5% CO2. Then compounds, dissolved in DMSO, are added in dose-response. Cells are incubated with compound dilutions for another 6 days at 37° C. in an incubator with 5% CO2. Cell viability is quantitated using the ATPlite kit (Perkin-Elmer) and the luminescence is read-out using an Envision instrument (Perkin-Elmer). The amount of relative light units produced using the ATPlite kit is used to calculated percent of inhibition.
(§2) The activities of some example compounds are depicted in Table 7. The activity ranges A, B and C refer to EC50 values in the mesothelioma cell line proliferation assay as described as follows: “A”: EC50<1 μM; “B”: 1 μM≤EC50≤10 μM and “C”: EC50>10 μM; NT: not tested.
(ATP-based viability assays read luminescence as a measure of living cells.)

A further assay relates to NCI-H226. The assay is described as follows: Mesothelioma cell line proliferation assay (ATPlite), NCI-H226. Conditions: Homo sapiens, 144 h; NCI-H226 cells, 6 days with compound, cell viability by ATPlite. The procedure:
as §1, §2

Assay [1] deals with YAP/TAZ-TEAD transcription. The assay is described as follows: Reporter gene assay for measuring the inhibition of YAP/TAZ-TEAD transcription (TEAD-responsive element luciferase reporter in Hek293T cells). The note with it: Homo sapiens, HEK-293T; Hek293T cells transfected with TEAD-responsive luciferase reporter, 24 hours incubation. The procedure:
Hek293T cells are cultured in DMEM supplemented with 10% fetal bovine serum, Sodium pyruvate, Sodium bicarbonate, L-glutamine. The cells are harvested and transiently transfected with TEAD-responsive element luciferase reporter. Transfected cells are plated in 384-wells plate containing pre-diluted compounds. After 24 hours incubation at 37° C./5% CO2, assay plates were cooled down to RT and levelled to an equal volume per well, prior to the addition of 25 uL luciferase substrate SteadyLite (Perkin Elmer)/well. The plate was shaken for 10 min at 600 rpm, centrifuged for 1 min at 500 rpm and measured with an Envision reader (PerkinElmer). The amount of relative light units produced by the TEAD reporter is used to calculated percent of inhibition.
The percent of reporter inhibition was calculated in the presence of a positive control inhibitor (100% inhibition) versus a condition with the presence of the vehicle basal activity of the reporter (0% inhibition). The ability of a test compound to inhibit this activity was determined as:
Percentage inhibition=[1−((RLU determined in the presence of vehicle−RLU determined for sample with test compound present) divided by (RLU determined in the presence of vehicle−RLU determined for sample with positive control inhibitor))]*100
The activities of example compounds tested are depicted in Table 6. The activity ranges A, B and C refer to IC50 values in the reporter gene assay as follows: “A”: IC50<1 μM; “B”: 1 μM≤IC50≤20 μM and “C”: IC50>20 μM; NT=not tested.
Background: In a reporter assay the amount or activity of a reporter protein is the signal.

On to `C=CC(=O)NCc1nn(-c2ccc(C(F)(F)F)cc2)c2ccc(OCC3CCOC3)cc12` (racemic) [compound 46, N-[[5-[[rac-tetrahydrofuran-3-yl]methoxy]-1-[4-(trifluoromethyl)phenyl]indazol-3-yl]methyl]prop-2-enamide], for which the EC50 (with NCI-H2052; with NCI-H226; in assay [1]) was less than 1000 nM throughout.
Take `C=CC(=O)NCc1nn(-c2ccc(C(F)(F)F)cc2)c2ccc(OC[C@H]3CCOC3)cc12` (single isomer, unassigned) [compound 47]: the EC50 (in the assay with NCI-H2052; with NCI-H226; in assay [1]) was less than 1000 nM in each case.
Turning to `C=CC(=O)NCc1nn(-c2ccc(C(F)(F)F)cc2)c2ccc(OC[C@@H]3CCOC3)cc12` (single isomer, unassigned) [compound 48], the EC50 (with NCI-H2052; with NCI-H226; in assay [1]) was less than 1000 nM each time.
On to `C=CC(=O)NCc1nn(-c2ccc(OC(F)(F)F)cc2)c2ccccc12` [Cpd. No. 4, N-((1-(4-(trifluoromethoxy)phenyl)-1H-indazol-3-yl)methyl)acrylamide], for which the EC50 (in the assay with NCI-H2052; with NCI-H226; in assay [1]) was less than 1000 nM each time.
Turning to `C=CC(=O)NCc1nn(-c2ccc(C(F)(F)F)cc2)c2ccc(OCC#N)cc12` [Cpd. No. 43, N-[[5-(cyanomethoxy)-1-[4-(trifluoromethyl)phenyl]indazol-3-yl]methyl]prop-2-enamide], the EC50 (with NCI-H2052; in the assay with NCI-H226; in assay [1]) was less than 1000 nM throughout.
For `C=CC(=O)NCc1nn(-c2ccc(C(F)(F)F)cc2)c2ccccc12` [compound 1, N-((1-(4-(trifluoromethyl)phenyl)-1H-indazol-3-yl)methyl)acrylamide], the half-maximal effective concentration (EC50) (with NCI-H2052; in the assay with NCI-H226; in assay [1]) was less than 1000 nM throughout.
In the case of `CS(=O)(=O)NCc1nn(-c2ccc(C(F)(F)F)cc2)c2ccccc12` [compound 3, N-((1-(4-(trifluoromethyl)phenyl)-1H-indazol-3-yl)methyl)methanesulfonamide], the EC50 (as a rule, the concentration giving half of the maximal effect) in the assay with NCI-H2052 is greater than 10000 nM; with NCI-H226, greater than 10000 nM; in assay [1], less than 1000 nM.
Turning to `C=CC(=O)NCc1nn(-c2ccc(C(F)(F)F)cc2)c2ncccc12` [compound 19, N-((1-(4-(trifluoromethyl)phenyl)-1H-pyrazolo[3,4-b]pyridin-3-yl)methyl)acrylamide], the concentration for a half-maximal effect (EC50) (in the assay with NCI-H2052; in the assay with NCI-H226; in assay [1]) was less than 1000 nM in each case.
For the compound `C=CC(=O)Nc1cn(-c2ccc(C(F)(F)F)cc2)c2ccccc12` [compound 20, N-(1-(4-(trifluoromethyl)phenyl)-1H-indol-3-yl)acrylamide], the figures for the EC50 (in the assay with NCI-H2052; in the assay with NCI-H226; in assay [1]) were less than 1000 nM, 1000 to 10000 nM and less than 1000 nM, respectively.
In the case of `CC(=O)Nc1cn(-c2ccc(C(F)(F)F)cc2)c2ccccc12` [compound 21, N-(1-(4-(trifluoromethyl)phenyl)-1H-indol-3-yl)acetamide], the concentration giving a half-maximal response (EC50) with NCI-H2052 was 1000 to 10000 nM; with NCI-H226, less than 1000 nM; in assay [1] it was less than 1000 nM.
On to `C=CC(=O)NCc1cn(-c2ccc(C(F)(F)F)cc2)c2ccccc12` [compound 27, N-((1-(4-(trifluoromethyl)phenyl)-1H-indol-3-yl)methyl)acrylamide], for which the EC50 was 1000 to 10000 nM with NCI-H2052, greater than 10000 nM in the assay with NCI-H226 and less than 1000 nM in assay [1].
`C=CC(=O)NCc1cc2ccccc2n1-c1ccc(C(F)(F)F)cc1` [compound 29, N-((1-(4-(trifluoromethyl)phenyl)-1H-indol-2-yl)methyl)acrylamide]: the EC50 (in the assay on NCI-H2052; in the assay with NCI-H226; in assay [1]) was less than 1000 nM each time.
For the compound `CCC(=O)NCc1nn(-c2ccc(C(F)(F)F)cc2)c2ccc(OCc3ccccc3)cc12` [compound 55, N-[[5-benzyloxy-1-[4-(trifluoromethyl)phenyl]indazol-3-yl]methyl]propanamide], the EC50 in assay [1] was greater than 20000 nM.
Compound `CS(=O)(=O)NCc1nn(-c2ccc(C(F)(F)F)cc2)c2ccc(OCc3ccccc3)cc12` [compound 56, N-[[5-benzyloxy-1-[4-(trifluoromethyl)phenyl]indazol-3-yl]methyl]methanesulfonamide] registered an EC50 in assay [1] of 1000 to 20000 nM.
Still for that read-out and setting: the figure for `N#CCS(=O)(=O)NCc1nn(-c2ccc(C(F)(F)F)cc2)c2ccccc12` [compound 57, 1-cyano-N-[[1-[4-(trifluoromethyl)phenyl]indazol-3-yl]methyl]methanesulfonamide] is 1000 to 20000 nM.
On the same count and under the same terms, the figure for `Cn1c(Oc2ccc3c(c2)c(CNS(C)(=O)=O)nn3-c2ccc(C(F)(F)F)cc2)cc(=O)[nH]c1=O` [compound 60, N-[[5-(3-methyl-2,6-dioxo-pyrimidin-4-yl)oxy-1-[4-(trifluoromethyl)phenyl]indazol-3-yl]methyl]methanesulfonamide] is greater than 20000 nM; for `CS(=O)(=O)NCc1nn(-c2ccc(C(F)(F)F)cc2)c2cc(OC3CC3)ccc12` [compound 61, N-[[6-(cyclopropoxy)-1-[4-(trifluoromethyl)phenyl]indazol-3-yl]methyl]methanesulfonamide] it is 1000 to 20000 nM.
On the same count and under the same terms, under `CCC(=O)NCc1nn(-c2ccc(C(F)(F)F)cc2)c2cc(OC3CC3)ccc12` [compound 62, N-[[6-(cyclopropoxy)-1-[4-(trifluoromethyl)phenyl]indazol-3-yl]methyl]propanamide] stands greater than 20000 nM.
Take `C#CCOc1ccc2c(c1)c(CNC(=O)CC)nn2-c1ccc(C(F)(F)F)cc1` [compound 64, N-[[5-prop-2-ynoxy-1-[4-(trifluoromethyl)phenyl]indazol-3-yl]methyl]propanamide]: in assay [1], the EC50 was greater than 20000 nM.
In turn, `C#CCOc1ccc2c(c1)c(CNS(C)(=O)=O)nn2-c1ccc(C(F)(F)F)cc1` [compound 65, N-[[5-prop-2-ynoxy-1-[4-(trifluoromethyl)phenyl]indazol-3-yl]methyl]methanesulfonamide] yielded an EC50 in assay [1] greater than 20000 nM.
Still for that read-out and setting: under `CCC(=O)NCc1nn(-c2ccc(C(F)(F)F)cc2)c2ccc(OCC3CC3)cc12` [compound 67, N-[[5-(cyclopropylmethoxy)-1-[4-(trifluoromethyl)phenyl]indazol-3-yl]methyl]propanamide] stands greater than 20000 nM; under `CS(=O)(=O)NCc1nn(-c2ccc(C(F)(F)F)cc2)c2ccc(OCC3CC3)cc12` [compound 68, N-[[5-(cyclopropylmethoxy)-1-[4-(trifluoromethyl)phenyl]indazol-3-yl]methyl]methanesulfonamide], less than 1000 nM.
Still for that read-out and setting: the figure for `O=C(O)COc1cccc2c1cnn2-c1ccc(C(F)(F)F)cc1` [compound 69, 2-[1-[4-(trifluoromethyl)phenyl]indazol-4-yl]oxyacetic acid] is greater than 20000 nM; for `C=C(CNc1nn(-c2ccc(C(F)(F)F)cc2)c2ccccc12)C(=O)O` [compound 70, 2-[[[1-[4-(trifluoromethyl)phenyl]indazol-3-yl]amino]methyl]prop-2-enoic acid] it is less than 1000 nM; for `CC(=O)NCc1nn(-c2ccc(C(F)(F)F)cc2)c2ccc(C(F)(F)F)cc12` [compound 72, N-[[5-(trifluoromethyl)-1-[4-(trifluoromethyl)phenyl]indazol-3-yl]methyl]acetamide] it is 1000 to 20000 nM.
In assay [1], `CS(=O)(=O)NCc1nn(-c2ccc(C(F)(F)F)cc2)c2ccc(C(F)(F)F)cc12` [compound 73, N-[[5-(trifluoromethyl)-1-[4-(trifluoromethyl)phenyl]indazol-3-yl]methyl]methanesulfonamide] had an EC50 of 1000 to 20000 nM.
On the same count and under the same terms, the figure for `CC(=O)NCc1nn(-c2ccc(C(F)(F)F)cc2)c2cc(C(F)(F)F)ccc12` [compound 75, N-[[6-(trifluoromethyl)-1-[4-(trifluoromethyl)phenyl]indazol-3-yl]methyl]acetamide] is greater than 20000 nM.
Same read-out and setting: under `CS(=O)(=O)NCc1nn(-c2ccc(C(F)(F)F)cc2)c2cc(C(F)(F)F)ccc12` [compound 76, N-[[6-(trifluoromethyl)-1-[4-(trifluoromethyl)phenyl]indazol-3-yl]methyl]methanesulfonamide] stands 1000 to 20000 nM.
